From US11851391B2, “Antifungal compounds and methods of forming the same” (University of Kentucky Research Foundation, priority 2018, dated 2023)
Converted amounts (≈) assume the structure as drawn. Read-outs that look alike come from different tables or passages of the source.

Legend:
[1] = tested on: Candida albicans ATCC 10231(R) (strain A); assay: MIC determination, in vitro antifungal assay (CLSI M27-A3); type: cell-based; settings: MIC-0 (no visible growth), 48 h at 35° C.
Description: (§1) The activity of N,N′-diaryl-bishydrazones 7-22 was tested against a panel of seven strains of C. albicans: ATCC 10231(R) (A), ATCC 64124(R) (B), ATCC MYA-2876(S) (C), ATCC 90819(R) (D), ATCC MYA-2310(S) (E), ATCC MYA-1237(R) (F), and ATCC MYA-1003(R) (G). The activity of these bishydrazones 7-22 was also explored against a panel of three non-albicans Candida strains: C. glabrata ATCC 2001 (H), C. krusei ATCC 6258 (I), and C. parapsilosis ATCC 22019 (J). Finally, the activity of these bishydrazones 7-22 was explored against three Aspergillus strains: A. flavus ATCC MYA-3631 (K), A. nidulans ATCC 38163 (L), and A. terreus ATCC MYA-3633 (M).
(§2) Candida albicans ATCC 10231 (A), C. albicans ATCC 64124 (B), and C. albicans ATCC MYA-2876 (C) were kindly provided by Dr. Jon Y. Takemoto (Utah State University, Logan, UT, USA). C. albicans ATCC 90819 (D), C. albicans ATCC MYA-2310 (E), C. albicans ATCC MYA-1237 (F), C. albicans ATCC MYA-1003 (G), Candida glabrata ATCC 2001 (H), Candida krusei ATCC 6258 (I), Candida parapsilosis ATCC 22019 (J), Aspergillus flavus ATCC MYA-3631 (K), and Aspergillus terreus ATCC MYA-3633 (M) were obtained from the American Type Culture Collection (ATCC; Manassas, VA, USA). Aspergillus nidulans ATCC 38163 (L) was received from Dr. Jon S. Thorson (University of Kentucky, Lexington, KY, USA). Filamentous fungi and yeasts were cultivated at 35° C. in RPMI 1640 medium (with 1-glutamine, without sodium biocarbonate, Sigma-Aldrich, St. Louis, MO) buffered to a pH of 7.0 with 0.165 M morpholinepropanesulfonic acid (MOPS) buffer (Sigma-Aldrich).
(§3) The MIC values of compounds 7a-24c against yeast cells (strains A-J) were determined in 96-well plates as described in the CLSI document M27-A3 with minor modifications. A single colony of freshly prepared yeast cells was used to inoculate 5 mL of yeast extract peptone dextrose (YPD) broth prior to incubation overnight with shaking at 200 rpm at 35° C. From the actively growing yeast culture, 100 μL were then transferred to 900 μL of sterile ddH2O and re-adjusted to achieve OD600 of 0.12 (˜1×10^6 CFU/mL). The cell suspension was further diluted to achieve 2-4×10^3 CFU/mL in RPMI 1640 medium. […] The final concentration of DMSO was ensured to be <1.25% in all experiments. The MIC values for compounds 7a-24c and CAS were defined as the minimum drug concentration that yielded complete inhibition (also known as MIC-0).

[2] = tested on: Candida parapsilosis ATCC 22019 (strain J); assay: as above; type: cell-based; settings: strain J, MIC-0, 48 h at 35° C.
Description: as §1, §2, §3

[3] = tested on: C. albicans ATCC 64124(R) (strain B); assay: as above; type: cell-based, Candida albicans; settings: strain B, MIC-0, 48 h at 35° C.
Description: as §1, §2, §3

[4] = tested on: C. albicans ATCC 90819(R) (strain D); assay: as above; type: cell-based, Candida albicans; settings: Candida albicans, ATCC90819, 48 h, MIC-0, 48 h at 35° C., read-out: MIC
Description: as §1, §2, §3

[5] = tested on: C. albicans ATCC MYA-1237(R) (strain F); assay: as above; type: cell-based, Candida albicans; settings: MIC-0, 48 h at 35° C.
Description: as §1, §2, §3

[6] = tested on: C. albicans ATCC MYA-2310(S) (strain E); assay: as above; type: cell-based, Candida albicans; settings: MIC-0, 48 h at 35° C.
Description: as §1, §2, §3

[7] = tested on: C. albicans ATCC MYA-1003(R) (strain G); assay: as above; type: cell-based, Candida albicans; settings: MIC-0, 48 h at 35° C.
Description: as §1, §2
(§4) A single colony of freshly prepared yeast cells was used to inoculate 5 mL of yeast extract peptone dextrose (YPD) broth prior to incubation overnight with shaking at 200 rpm at 35° C. From the actively growing yeast culture, 100 μL were then transferred to 900 μL of sterile ddH2O and re-adjusted to achieve OD600 of 0.12 (˜1×10^6 CFU/mL). The cell suspension was further diluted to achieve 2-4×10^3 CFU/mL in RPMI 1640 medium. […] The final concentration of DMSO was ensured to be <1.25% in all experiments.

[8] = tested on: C. albicans ATCC MYA-2876(S) (strain C); assay: as above; type: cell-based, Candida albicans; settings: MIC-0, 48 h at 35° C.
Description: as §1, §2, §4

[9] = tested on: Candida glabrata ATCC 2001 (strain H); assay: as above; type: cell-based; settings: MIC-0, 48 h at 35° C.
Description: as §1, §2, §4

[10] = tested on: Candida krusei ATCC 6258 (strain I); assay: as above; type: cell-based; settings: MIC-0, 48 h at 35° C.
Description: as §1, §2, §4

[11] = tested on: Aspergillus flavus ATCC MYA-3631 (strain K); assay: MIC determination against filamentous fungi (CLSI M38-A2); type: cell-based; settings: Aspergillus flavus, 48 h, MIC-0, 48 h at 35° C., read-out: MIC
Description: as §1, §2
(§5) Similarly, the MIC values of compounds 7a-24c, as well as that of the two control drugs against filamentous fungi (strains K-M) were determined as previously described in CLSI document M38-A2. Spores were harvested from sporulating cultures growing on potato dextrose agar (PDA) by filtration through sterile glass wool and enumerated by using a hemocytometer to obtain the desired inoculum size. […] Spore suspensions were added to the wells to afford a final concentration of 5×10^5 CFU/mL. The plates were incubated at 35° C. for 48 h. The MIC values of compounds 7a-24c and CAS against filamentous fungi were based on the complete inhibition of growth when compared to the growth control (MIC-0). […] Each test was performed in triplicate.

[12] = tested on: Aspergillus nidulans ATCC 38163 (strain L); assay: as above; type: cell-based; settings: Aspergillus nidulans, ATCC38163, 48 h, MIC-0, 48 h at 35° C., read-out: MIC
Description: as §1, §2, §5

[13] = tested on: Aspergillus terreus ATCC MYA-3633 (strain M); assay: as above; type: cell-based; settings: Aspergillus terreus, 48 h, MIC-0, 48 h at 35° C., read-out: MIC
Description: as §1, §2, §5

[14] = Candida albicans, ATCC10231, 48 h, read-out: MIC
[15] = Lodderomyces parapsilosis, ATCC22019, 48 h, read-out: MIC
[16] = Candida albicans, ATCC64124, 48 h, read-out: MIC
[17] = Candida albicans, 48 h, read-out: MIC
[18] = Nakaseomyces glabratus, ATCC2001, 48 h, read-out: MIC
[19] = Pichia kudriavzevii, ATCC6258, 48 h, read-out: MIC

Compound	MIC [1, 14] [µg/mL]	MIC [2, 15] [µg/mL]	MIC [3, 16] [µg/mL]	MIC [4] [µg/mL]	MIC [5, 17] [µg/mL]	MIC [6, 17] [µg/mL]	MIC [7, 17] [µg/mL]	MIC [8, 17] [µg/mL]	MIC [9, 18] [µg/mL]	MIC [10, 19] [µg/mL]	MIC [11] [µg/mL]	MIC [12] [µg/mL]	MIC [13] [µg/mL]	MIC [9] [µg/mL]	other results
CC[C@H](C)C[C@H](C)CCCCCCCCC(=O)N[C@H]1C[C@@H](O)[C@@H](NCCN)NC(=O)[C@@H]2[C@@H](O)CCN2C(=O)[C@H]([C@H](O)CCN)NC(=O)[C@H]([C@H](O)[C@@H](O)c2ccc(O)cc2)NC(=O)[C@@H]2C[C@@H](O)CN2C(=O)[C@H]([C@@H](C)O)NC1=O [CAS, caspofungin, reference compound]	0.975 (≈ 0.892 µM)	1.95 (≈ 1.78 µM)	0.24 (≈ 0.22 µM)	0.12 (≈ 0.11 µM)	0.24 (≈ 0.22 µM)	0.12 (≈ 0.11 µM)	0.48 (≈ 0.439 µM)	0.06 (≈ 0.0549 µM)	0.06 (≈ 0.0549 µM)	0.48 (≈ 0.439 µM)	> 31.3	> 31.3	> 31.3	–	–
Fc1ccccc1N/N=C/c1ccc(-c2cccc(/C=N/Nc3ccccc3F)c2)cc1 [Compound 10a]	7.8 (≈ 18.3 µM)	15.6 (≈ 36.6 µM)	7.8 (≈ 18.3 µM)	15.6 (≈ 36.6 µM)	> 31.3	31.3 (≈ 73.4 µM)	7.8 (≈ 18.3 µM)	> 31.3	> 31.3	1.95 (≈ 4.57 µM)	3.9 (≈ 9.14 µM)	7.8 (≈ 18.3 µM)	> 31.3	–	–
Fc1ccccc1N/N=C/c1ccc(-c2ccc(/C=N/Nc3ccccc3F)cc2)cc1 [Compound 10b]	3.9 (≈ 9.14 µM)	> 31.3	> 31.3	31.3 (≈ 73.4 µM)	> 31.3	> 31.3	15.6 (≈ 36.6 µM)	15.6 (≈ 36.6 µM)	> 31.3	3.9 (≈ 9.14 µM)	> 31.3	31.3 (≈ 73.4 µM)	> 31.3	–	–
COc1cccc(N/N=C(\C)c2ccc(-c3ccc(/C(C)=N/Nc4cccc(OC)c4)cc3)cc2)c1 [Compound 11c]	0.98 to 3.9 (≈ 2.05 to 8.15 µM)	15.6 (≈ 32.6 µM)	0.98 to 3.9 (≈ 2.05 to 8.15 µM)	31.3 (≈ 65.4 µM)	31.3 (≈ 65.4 µM)	15.6 (≈ 32.6 µM)	–	15.6 (≈ 32.6 µM)	15.6 (≈ 32.6 µM)	0.98 to 3.9 (≈ 2.05 to 8.15 µM)	> 31.3	> 31.3	> 31.3	15.6 (≈ 32.6 µM)	MIC [1]: 0.98 µg/mL (≈ 2.05 µM); MIC [2]: 15.6 µg/mL (≈ 32.6 µM); MIC [3]: 0.98 µg/mL (≈ 2.05 µM); MIC [6]: 15.6 µg/mL (≈ 32.6 µM); MIC [8]: 15.6 µg/mL (≈ 32.6 µM); MIC [10]: 0.98 µg/mL (≈ 2.05 µM)
COc1ccc(N/N=C(\C)c2ccc(-c3ccc(/C(C)=N/Nc4ccc(OC)cc4)cc3)cc2)cc1 [Compound 15c]	7.8 to 15.6 (≈ 16.3 to 32.6 µM)	> 31.3	7.8 to 15.6 (≈ 16.3 to 32.6 µM)	31.3 (≈ 65.4 µM)	7.8 to 15.6 (≈ 16.3 to 32.6 µM)	7.8 to 15.6 (≈ 16.3 to 32.6 µM)	7.8 to 15.6 (≈ 16.3 to 32.6 µM)	7.8 to 15.6 (≈ 16.3 to 32.6 µM)	7.8 to 15.6 (≈ 16.3 to 32.6 µM)	7.8 to 15.6 (≈ 16.3 to 32.6 µM)	> 31.3	> 31.3	> 31.3	7.8 (≈ 16.3 µM)	MIC [1]: 15.6 µg/mL (≈ 32.6 µM); MIC [3]: 15.6 µg/mL (≈ 32.6 µM); MIC [5]: 7.8 µg/mL (≈ 16.3 µM); MIC [6]: 15.6 µg/mL (≈ 32.6 µM); MIC [7]: 7.8 µg/mL (≈ 16.3 µM); MIC [8]: 15.6 µg/mL (≈ 32.6 µM); MIC [10]: 15.6 µg/mL (≈ 32.6 µM)
Brc1ccc(N/N=C/c2ccc(-c3cccc(/C=N/Nc4ccc(Br)cc4)c3)cc2)cc1 [Compound 19a]	31.3 (≈ 57.1 µM)	> 31.3	31.3 (≈ 57.1 µM)	> 31.3	7.8 (≈ 14.2 µM)	> 31.3	31.3 (≈ 57.1 µM)	31.3 (≈ 57.1 µM)	7.8 (≈ 14.2 µM)	> 31.3	31.3 (≈ 57.1 µM)	> 31.3	> 31.3	7.8 (≈ 14.2 µM)	MIC [5]: 7.8 µg/mL (≈ 14.2 µM)
Fc1ccc(F)c(N/N=C/c2ccc(-c3cccc(/C=N/Nc4cc(F)ccc4F)c3)cc2)c1 [Compound 21a]	> 31.3	> 31.3	> 31.3	> 31.3	> 31.3	> 31.3	> 31.3	> 31.3	> 31.3	> 31.3	> 31.3	> 31.3	> 31.3	–	–
Fc1ccc(F)c(N/N=C/c2ccc(-c3ccc(/C=N/Nc4cc(F)ccc4F)cc3)cc2)c1 [Compound 21b]	31.3 (≈ 67.7 µM)	> 31.3	> 31.3	> 31.3	> 31.3	> 31.3	> 31.3	> 31.3	> 31.3	> 31.3	> 31.3	> 31.3	> 31.3	–	–
N=C(N)N/N=C/c1ccc(-c2ccc(/C=N/NC(=N)N)cc2)cc1 [Compound 24b]	31.3 (≈ 97.1 µM)	3.9 (≈ 12.1 µM)	> 31.3	> 31.3	> 31.3	> 31.3	15.6 (≈ 48.4 µM)	> 31.3	> 31.3	15.6 (≈ 48.4 µM)	> 31.3	> 31.3	> 31.3	–	–
C/C(=N\NC(=N)N)c1ccc(-c2ccc(/C(C)=N/NC(=N)N)cc2)cc1 [Compound 24c]	3.9 (≈ 11.1 µM)	1.95 (≈ 5.56 µM)	3.9 (≈ 11.1 µM)	3.9 (≈ 11.1 µM)	15.6 (≈ 44.5 µM)	15.6 (≈ 44.5 µM)	15.6 (≈ 44.5 µM)	15.6 (≈ 44.5 µM)	7.8 (≈ 22.3 µM)	3.9 (≈ 11.1 µM)	> 31.3	15.6 (≈ 44.5 µM)	> 31.3	–	–
